According to ChEMBL document CHEMBL1614632, “Trend analysis of a database of intravenous pharmacokinetic parameters in humans for 670 drug compounds” (Drug Metab Dispos, 2008):

How the values were obtained:
clinical [1] = details: human, in vivo, iv, CL
clinical [2] = details: human, in vivo, iv
clinical [3] = details: human, in vivo, iv, t1/2
clinical [4] = details: human, in vivo, iv, Vdss

SMILES	clearance (clinical [1]) [mL/min/kg]	MRT (clinical [2]) [h]	half-life (clinical [3]) [h]	Vd (clinical [4]) [L/kg]
COc1ccccc1OCCNCC(O)COc1cccc2[nH]c3ccccc3c12 (stereo not given) [CARVEDILOL]	7.8	2.8	2.4	1.3
CC1=C(C(=O)O)N2C(=O)[C@@H](NC(=O)[C@H](N)c3ccc(O)cc3)[C@H]2SC1 [CEFADROXIL]	2.5	1.5	1.1	0.23
N[C@@H](C(=O)N[C@@H]1C(=O)N2C(C(=O)O)=C(CSc3c[nH]nn3)CS[C@H]12)c1ccc(O)cc1 [CEFATRIZINE]	3.3	1.1	1.2	0.22
CC=CC1=C(C(=O)O)N2C(=O)[C@@H](NC(=O)[C@H](N)c3ccc(O)cc3)[C@H]2SC1 [CEFPROZIL]	2.9	1.2	1.2	0.21
CC1=C(C(=O)O)N2C(=O)[C@@H](NC(=O)[C@H](N)C3=CCC=CC3)[C@H]2SC1 [CEPHRADINE]	3.3	1.1	0.85	0.21
COCc1c(C(C)C)nc(C(C)C)c(/C=C/[C@@H](O)C[C@@H](O)CC(=O)O)c1-c1ccc(F)cc1 [CERIVASTATIN]	2.9	1.8	1.8	0.33
O=C(O)CCCc1ccc(N(CCCl)CCCl)cc1 [CHLORAMBUCIL]	2.8	1.5	1.1	0.26
Clc1cccc(N2CCNCC2)c1 [CHLOROPHENYLPIPERAZINE]	6.1	7	4.7	2.5
CN(C)CCCN1c2ccccc2Sc2ccc(Cl)cc21 [CHLORPROMAZINE]	16	10	11	10
CCCNC(=O)NS(=O)(=O)c1ccc(Cl)cc1 [CHLORPROPAMIDE]	0.045	70	46	0.19
CN(C)[C@@H]1C(O)=C(C(N)=O)C(=O)[C@@]2(O)C(O)=C3C(=O)c4c(O)ccc(Cl)c4[C@@](C)(O)[C@H]3C[C@@H]12 [CHLORTETRACYCLINE]	2	7.4	7	0.9
NS(=O)(=O)c1cc(C2(O)NC(=O)c3ccccc32)ccc1Cl (stereo not given) [CHLORTHALIDONE]	1.5	43	36	3.9
CCC#CC[C@H](C)[C@H](O)C#C[C@@H]1[C@H]2C/C(=C/COCC(=O)O)C[C@H]2C[C@H]1O [CICAPROST]	3.8	0.35	1.1	0.08
Nc1ccn(C[C@@H](CO)OCP(=O)(O)O)c(=O)n1.O.O [CIDOFOVIR]	2.5	3.3	2.6	0.49
c1ccc(C2(c3ccccc3)CC2C2=NCCN2)cc1 (stereo not given) [CIFENLINE]	8.6	7.8	7.3	4.1
COc1ccc([C@]2(C#N)CC[C@@H](C(=O)O)CC2)cc1OC1CCCC1 [CILOMILAST]	0.5	8.5	7.9	0.23
CN/C(=N/CCSCc1nc[nH]c1C)NC#N [CIMETIDINE]	8.1	2.5	2.2	1.2
CC[C@H]1OC(=O)[C@H](C)[C@@H](O[C@H]2C[C@@](C)(OC)[C@@H](O)[C@H](C)O2)[C@H](C)[C@@H](O[C@@H]2O[C@H](C)C[C@H](N(C)C)[C@H]2O)[C@](C)(OC)C[C@@H](C)C(=O)[C@H](C)[C@@H](O)[C@]1(C)O [CLARITHROMYCIN]	7.3	3.4	2.8	1.5
O=C(O)[C@H]1/C(=C/CO)O[C@@H]2CC(=O)N21 [CLAVULANIC ACID]	3.1	1	0.9	0.22
NC1CCN(c2c(F)cc3c(=O)c(C(=O)O)cn(C4CC4)c3c2Cl)C1 (stereo not given) [CLINAFLOXACIN]	4.7	6.7	5.4	1.9
O=C1CN=C(c2ccccc2Cl)c2cc([N+](=O)[O-])ccc2N1 [CLONAZEPAM]	0.88	55	38	2.9
O=C(O)C1N=C(c2ccccc2)c2cc(Cl)ccc2NC1=O (stereo not given) [CLORAZEPIC ACID]	1.1	3	2.4	0.2
CN1C(=O)CC[C@H]1c1cccnc1 [COTININE]	0.89	21	17	1.1
O=C1CN(/N=C/c2ccc(-c3ccc([N+](=O)[O-])cc3)o2)C(O)=N1 [DANTROLENE]	0.43	14	10	0.37
Nc1ncn([C@H]2C[C@H](O)[C@@H](CO)O2)c(=O)n1 [DECITABINE]	130	0.59	0.58	4.6
